The source of these data is ChEMBL document CHEMBL4610114, “Fragment-Based Discovery of Pyrazolopyridones as JAK1 Inhibitors with Excellent Subtype Selectivity” (J Med Chem, 2020).

Values after ≈ are worked out from the molar mass of the structure shown.

The target in data set [1] is T1, Tyrosine-protein kinase JAK1 (Homo sapiens, UniProt P23458).
The target in data set [2] is T2, Tyrosine-protein kinase JAK3 (Homo sapiens, UniProt P52333).
T2 sequence (P52333 whole entry): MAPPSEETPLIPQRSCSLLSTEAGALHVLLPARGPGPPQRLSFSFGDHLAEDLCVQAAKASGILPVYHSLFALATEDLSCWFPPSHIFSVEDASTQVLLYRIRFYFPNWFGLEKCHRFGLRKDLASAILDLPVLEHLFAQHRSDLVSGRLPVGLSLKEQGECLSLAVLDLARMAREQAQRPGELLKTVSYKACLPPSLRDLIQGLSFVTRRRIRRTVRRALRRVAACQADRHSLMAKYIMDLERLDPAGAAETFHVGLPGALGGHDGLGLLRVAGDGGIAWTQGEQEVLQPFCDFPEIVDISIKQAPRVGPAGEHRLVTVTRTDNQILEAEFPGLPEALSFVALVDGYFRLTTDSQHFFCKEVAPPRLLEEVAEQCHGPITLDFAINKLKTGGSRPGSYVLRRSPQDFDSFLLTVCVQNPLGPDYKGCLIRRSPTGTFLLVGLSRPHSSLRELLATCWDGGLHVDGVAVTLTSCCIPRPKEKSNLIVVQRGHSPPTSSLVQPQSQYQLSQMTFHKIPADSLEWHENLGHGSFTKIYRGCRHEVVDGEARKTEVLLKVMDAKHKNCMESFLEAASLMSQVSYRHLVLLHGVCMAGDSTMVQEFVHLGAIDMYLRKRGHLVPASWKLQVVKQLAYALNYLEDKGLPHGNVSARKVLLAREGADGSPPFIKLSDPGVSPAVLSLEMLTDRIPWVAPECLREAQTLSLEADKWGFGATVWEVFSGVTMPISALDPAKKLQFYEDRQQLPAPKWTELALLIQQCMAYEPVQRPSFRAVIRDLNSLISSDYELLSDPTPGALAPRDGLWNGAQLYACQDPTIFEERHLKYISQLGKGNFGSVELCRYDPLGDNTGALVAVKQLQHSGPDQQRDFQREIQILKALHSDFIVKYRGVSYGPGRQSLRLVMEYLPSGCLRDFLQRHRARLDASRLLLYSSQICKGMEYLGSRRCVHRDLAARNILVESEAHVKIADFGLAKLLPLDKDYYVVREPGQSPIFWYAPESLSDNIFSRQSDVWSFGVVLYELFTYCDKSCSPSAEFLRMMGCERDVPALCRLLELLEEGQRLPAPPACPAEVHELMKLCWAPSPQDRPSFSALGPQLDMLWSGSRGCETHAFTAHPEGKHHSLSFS

Data set [3] concerns the target T3, Tyrosine-protein kinase JAK2 (Homo sapiens, UniProt O60674).
In data set [4] the target is Non-receptor tyrosine-protein kinase TYK2 (Homo sapiens, UniProt P29597).
Data set [5] addresses T1, Tyrosine-protein kinase JAK1. The source holds these as a separate data set.
Description: Inhibition of JAK1 in human STAT6-bla-RA1 cells assessed as reduction in IL4-induced STAT6-signalling pre-incubated for 1 hrs before human recombinant IL4 addition and further incubated for 4 hrs fluorescence based assay
In data set [6] the target is T3, Tyrosine-protein kinase JAK2. The source holds these as a separate data set.
Description: Inhibition of JAK2 in human STAT5-irf1-bla TF1 cells assessed as reduction in EPO-induced STAT5-signalling pre-incubated for 1 hrs before EPO addition and further incubated for 4 hrs fluorescence based assay
Data set [7] is described as follows: physchem. The settings on record: octanol/water.
Description: Lipophilicity, logD of the compound by shake flask assay
A short description of data set [8]: physchem. The settings on record: PBS buffer, pH 7.4.
Description: Aqueous solubility in PBS buffer at pH 7.4 by HPLC analysis

Sequence of Non-receptor tyrosine-protein kinase TYK2 (P29597 whole entry): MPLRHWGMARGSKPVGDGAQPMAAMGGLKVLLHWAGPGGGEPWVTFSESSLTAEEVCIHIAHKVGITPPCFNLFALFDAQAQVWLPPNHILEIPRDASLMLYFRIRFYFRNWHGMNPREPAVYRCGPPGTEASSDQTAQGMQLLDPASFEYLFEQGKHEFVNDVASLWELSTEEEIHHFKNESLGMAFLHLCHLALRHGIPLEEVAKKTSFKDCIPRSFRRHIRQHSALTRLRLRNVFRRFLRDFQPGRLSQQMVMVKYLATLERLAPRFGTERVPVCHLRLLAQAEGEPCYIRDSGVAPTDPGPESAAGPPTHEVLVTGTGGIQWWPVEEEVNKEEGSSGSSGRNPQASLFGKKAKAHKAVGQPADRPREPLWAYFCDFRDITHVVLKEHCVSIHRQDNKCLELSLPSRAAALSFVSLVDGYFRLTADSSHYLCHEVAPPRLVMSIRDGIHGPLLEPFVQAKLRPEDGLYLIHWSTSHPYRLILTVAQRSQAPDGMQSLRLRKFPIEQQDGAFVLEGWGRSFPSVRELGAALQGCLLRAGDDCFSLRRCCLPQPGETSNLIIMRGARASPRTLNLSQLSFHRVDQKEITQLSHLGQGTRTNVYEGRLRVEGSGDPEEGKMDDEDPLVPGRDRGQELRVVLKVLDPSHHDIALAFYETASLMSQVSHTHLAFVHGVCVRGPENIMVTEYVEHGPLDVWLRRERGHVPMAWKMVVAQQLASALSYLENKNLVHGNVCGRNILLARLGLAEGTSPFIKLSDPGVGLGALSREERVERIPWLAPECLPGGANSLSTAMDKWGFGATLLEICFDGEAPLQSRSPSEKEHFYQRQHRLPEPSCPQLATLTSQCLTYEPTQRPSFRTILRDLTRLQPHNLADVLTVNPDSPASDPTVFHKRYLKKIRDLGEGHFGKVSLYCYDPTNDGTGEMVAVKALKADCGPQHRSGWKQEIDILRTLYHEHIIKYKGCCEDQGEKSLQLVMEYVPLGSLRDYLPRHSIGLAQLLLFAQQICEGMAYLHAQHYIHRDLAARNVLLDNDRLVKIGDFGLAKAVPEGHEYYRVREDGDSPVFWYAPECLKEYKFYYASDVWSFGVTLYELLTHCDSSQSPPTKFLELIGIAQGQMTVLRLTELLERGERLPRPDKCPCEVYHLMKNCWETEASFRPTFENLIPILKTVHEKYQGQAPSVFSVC
T3 sequence (O60674 whole entry): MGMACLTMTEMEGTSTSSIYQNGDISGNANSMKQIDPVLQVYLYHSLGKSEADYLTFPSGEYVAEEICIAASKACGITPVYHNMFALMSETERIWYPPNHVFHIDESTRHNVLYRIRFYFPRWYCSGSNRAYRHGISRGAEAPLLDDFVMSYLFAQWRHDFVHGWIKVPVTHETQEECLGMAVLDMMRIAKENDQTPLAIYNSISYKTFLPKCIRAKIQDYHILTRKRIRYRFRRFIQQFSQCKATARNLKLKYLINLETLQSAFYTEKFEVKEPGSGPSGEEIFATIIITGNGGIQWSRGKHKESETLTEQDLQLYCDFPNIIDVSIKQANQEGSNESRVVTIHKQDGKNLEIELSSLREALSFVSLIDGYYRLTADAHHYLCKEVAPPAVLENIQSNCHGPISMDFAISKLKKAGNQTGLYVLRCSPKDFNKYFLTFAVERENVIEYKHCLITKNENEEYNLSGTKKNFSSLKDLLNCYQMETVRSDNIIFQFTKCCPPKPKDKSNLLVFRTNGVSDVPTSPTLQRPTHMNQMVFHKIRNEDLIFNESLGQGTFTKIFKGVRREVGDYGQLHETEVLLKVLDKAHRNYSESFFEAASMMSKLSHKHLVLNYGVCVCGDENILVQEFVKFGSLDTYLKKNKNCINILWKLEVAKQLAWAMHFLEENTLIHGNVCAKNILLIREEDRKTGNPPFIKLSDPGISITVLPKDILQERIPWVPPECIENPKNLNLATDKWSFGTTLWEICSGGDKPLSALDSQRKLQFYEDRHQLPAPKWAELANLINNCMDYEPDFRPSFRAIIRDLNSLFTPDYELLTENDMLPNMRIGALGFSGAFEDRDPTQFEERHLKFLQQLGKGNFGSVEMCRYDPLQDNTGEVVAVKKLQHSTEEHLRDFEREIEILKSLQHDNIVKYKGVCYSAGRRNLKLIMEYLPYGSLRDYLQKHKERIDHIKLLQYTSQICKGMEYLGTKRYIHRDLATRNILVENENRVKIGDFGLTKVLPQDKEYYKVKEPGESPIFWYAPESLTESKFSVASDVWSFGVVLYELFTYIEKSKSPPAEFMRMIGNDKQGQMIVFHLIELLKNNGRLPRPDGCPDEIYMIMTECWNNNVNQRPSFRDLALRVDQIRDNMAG
T1 sequence (P23458 whole entry): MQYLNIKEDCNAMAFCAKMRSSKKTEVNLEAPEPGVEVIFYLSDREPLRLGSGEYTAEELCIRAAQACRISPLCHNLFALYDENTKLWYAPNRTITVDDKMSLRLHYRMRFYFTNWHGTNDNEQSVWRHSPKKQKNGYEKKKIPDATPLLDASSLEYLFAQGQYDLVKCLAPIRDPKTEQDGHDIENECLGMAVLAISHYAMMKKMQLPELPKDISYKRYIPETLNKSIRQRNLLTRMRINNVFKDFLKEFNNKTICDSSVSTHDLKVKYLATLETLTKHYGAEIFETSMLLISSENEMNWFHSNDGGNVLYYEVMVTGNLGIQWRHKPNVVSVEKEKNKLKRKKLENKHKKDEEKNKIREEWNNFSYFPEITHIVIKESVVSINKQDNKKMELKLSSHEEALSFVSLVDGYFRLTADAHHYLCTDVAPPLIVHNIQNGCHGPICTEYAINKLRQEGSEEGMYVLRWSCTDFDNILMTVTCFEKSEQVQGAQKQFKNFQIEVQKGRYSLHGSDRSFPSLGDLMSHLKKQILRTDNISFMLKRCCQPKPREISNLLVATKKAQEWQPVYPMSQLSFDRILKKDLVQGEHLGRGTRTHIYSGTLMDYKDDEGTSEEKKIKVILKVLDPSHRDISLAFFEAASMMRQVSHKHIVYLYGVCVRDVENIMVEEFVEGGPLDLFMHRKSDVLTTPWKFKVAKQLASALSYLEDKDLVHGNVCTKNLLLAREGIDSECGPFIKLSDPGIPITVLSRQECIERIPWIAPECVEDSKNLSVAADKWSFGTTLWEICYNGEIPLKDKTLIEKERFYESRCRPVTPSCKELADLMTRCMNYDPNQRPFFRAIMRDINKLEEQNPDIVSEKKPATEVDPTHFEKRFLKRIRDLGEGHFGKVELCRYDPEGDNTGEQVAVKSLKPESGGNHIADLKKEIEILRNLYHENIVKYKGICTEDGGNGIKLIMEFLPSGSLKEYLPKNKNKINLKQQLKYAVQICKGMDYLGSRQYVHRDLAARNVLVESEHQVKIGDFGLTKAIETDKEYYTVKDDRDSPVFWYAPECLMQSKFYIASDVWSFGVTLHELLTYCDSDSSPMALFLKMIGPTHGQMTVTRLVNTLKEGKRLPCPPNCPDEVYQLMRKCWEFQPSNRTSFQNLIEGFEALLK

Turning to `Cc1[nH]nc2[nH]c(=O)cc(C3CCCC3)c12`, the half-maximal inhibitory concentration (IC50) (usually the midpoint of a concentration-inhibition curve) in data set [1] is 72 nM; in data set [2] it was 670 nM; in data set [3], 13000 nM; in data set [4] it was 830 nM; in data set [5] it was 4300 nM; in data set [6] it was over 40000 nM. Further, in “physchem [7]”, the logD (as a rule, lipophilicity at a set pH, counting ionised and neutral species) was found to be 2.2. Besides, in “physchem [8]”, the solubility – broadly, the dissolved amount per volume that the medium holds – was found to be 39 µM (≈ 8.47 µg/mL).
As for `Cc1[nH]nc2[nH]c(=O)cc(CC3CCC3)c12`, the IC50 was 120 nM in data set [1]; 480 nM in data set [2]; 570 nM in data set [3]; 1100 nM in data set [4]; 3400 nM in data set [5]; over 40000 nM in data set [6]. In addition, the logD in the data set “physchem [7]” was 2.2. In the data set “physchem [8]”, this molecule showed a solubility of 16 µM (≈ 3.48 µg/mL).
In the case of `Cc1[nH]nc2[nH]c(=O)cc(-c3ccccc3)c12`, the IC50 in data set [1] is 2200 nM; in data set [2] it was 2600 nM; in data set [3] it was 4200 nM; in data set [4], 3900 nM; in data set [5], over 50000 nM. Also, the logD in the data set “physchem [7]” amounted to 2.2. This molecule showed a solubility in “physchem [8]” of over 90 µM.
As to `Cc1[nH]nc2[nH]c(=O)cc([C@H]3CCCC[C@H]3C)c12` (racemic), the half-maximal inhibitory concentration (IC50) in data set [1] came out at 40 nM; in data set [2], 110 nM; in data set [3], 340 nM; in data set [4], 700 nM; in data set [5], 1300 nM; in data set [6], 8900 nM. Further, the logD in “physchem [7]” came out at 3. This molecule displayed a solubility in “physchem [8]” of 8 µM (≈ 1.96 µg/mL).
In the case of `Cc1[nH]nc2[nH]c(=O)cc([C@H]3CC[C@H](OC(=O)[C@@H]4CC4(F)F)CC3)c12`, the IC50 is 14 nM in data set [1]; 91 nM in data set [2]; 120 nM in data set [3]; 420 nM in data set [5]; over 25000 nM in data set [6]. Moreover, the solubility in “physchem [8]” was 3 µM (≈ 1.05 µg/mL).
`Cc1[nH]nc2[nH]c(=O)cc([C@H]3CC[C@H](NC(=O)C4CCCC4)CC3)c12`: the IC50 is 110 nM in data set [1]; 4800 nM in data set [2]; 1600 nM in data set [3]; 6800 nM in data set [4]; 9100 nM in data set [5]; over 30000 nM in data set [6].
As for `CCc1[nH]nc2[nH]c(=O)cc(C3CCCCC3)c12`, the 50% inhibitory concentration (IC50) in data set [1] was 460 nM; in data set [2] it was 1600 nM; in data set [3] it was 2700 nM; in data set [5] it was 2500 nM; in data set [6], over 40000 nM. This molecule also displayed a log distribution coefficient (logD) in the data set “physchem [7]” of 3.
Take `Cc1[nH]nc2[nH]c(=O)cc([C@H]3CC[C@H](NS(=O)(=O)CC4CCC4)CC3)c12`: the concentration for half-maximal inhibition (IC50) in data set [1] was 40 nM; in data set [2], 1700 nM; in data set [3] it was 570 nM; in data set [5], 3200 nM; in data set [6] it was over 10000 nM.
For `Cc1[nH]nc2[nH]c(=O)c(CO)c(C3CCCCC3)c12`, the half-inhibitory concentration (IC50) was 140 nM in data set [1]; 1400 nM in data set [2]; 2800 nM in data set [3]; 650 nM in data set [4]; 4800 nM in data set [5]; over 40000 nM in data set [6]. In “physchem [7]”, the logD is 2.1. Also, the solubility in “physchem [8]” came out at 100 µM (≈ 26.1 µg/mL).
For the molecule `Cc1[nH]nc2[nH]c(=O)cc([C@H]3CC[C@H](NC(=O)[C@H]4CC4(F)F)CC3)c12`, the IC50 was 78 nM in data set [1]; 2700 nM in data set [2]; 1700 nM in data set [3]; 2700 nM in data set [4]; over 40000 nM in data set [5]; over 40000 nM in data set [6]. In the data set “physchem [7]”, the logD was 1.3. For the same molecule, in “physchem [8]”, the concentration in solution (solubility) came to 29 µM (≈ 10.2 µg/mL).
As for `Cc1[nH]nc2[nH]c(=O)cc([C@H]3CC[C@H](NC(=O)C4CC4)CC3)c12`, the IC50 is 220 nM in data set [1]; 7000 nM in data set [2]; 2100 nM in data set [3]; 2800 nM in data set [4]; over 14000 nM in data set [5]; over 14000 nM in data set [6]. The same molecule had a logD in the data set “physchem [7]” of 1.2. For the same molecule, the solubility in the data set “physchem [8]” is 22 µM (≈ 6.92 µg/mL).
`Cc1[nH]nc2[nH]c(=O)cc([C@H]3C[C@H]4CC[C@@H]3C4)c12` (racemic): the IC50 in data set [1] is 46 nM; in data set [2], 240 nM; in data set [3], 430 nM; in data set [4], 430 nM; in data set [5] it was 850 nM; in data set [6], 22000 nM. Also, the pH-dependent lipophilicity (logD) in the data set “physchem [7]” turned out to be 2.8. The solubility in “physchem [8]” came out at 64 µM (≈ 15.6 µg/mL).
For the molecule `Cc1cc(=O)[nH]c2nn(C)c(C)c12`, in data set [1], the half-inhibitory concentration (IC50) is over 500000 nM.
`Cc1[nH]nc2[nH]c(=O)cc([C@@H]3C[C@@H]4C[C@H]3C[C@H]4CC#N)c12`: the IC50 in data set [2] worked out at 420 nM; in data set [3] it was 93 nM; in data set [4] it was 180 nM; in data set [6], 15000 nM.
As to `Cc1[nH]nc2[nH]c(=O)cc([C@H]3CC[C@H](CCC#N)CC3)c12`, the IC50 is 32 nM in data set [1]; 280 nM in data set [2]; 160 nM in data set [3]; 1200 nM in data set [5]; 13000 nM in data set [6]. This molecule yielded a pH-dependent lipophilicity (logD) in “physchem [7]” of 1.8. The same molecule returned a solubility in the data set “physchem [8]” of 18 µM (≈ 5.12 µg/mL).
`Cc1[nH]nc2[nH]c(=O)c(CCO)c(C3CCCCC3)c12`: the half-maximal inhibitory concentration (IC50) in data set [1] is 490 nM; in data set [2], 990 nM; in data set [3] it was 3900 nM; in data set [4] it was 3400 nM; in data set [5] it was 8500 nM; in data set [6], over 40000 nM. The log distribution coefficient (logD) in “physchem [7]” was found to be 2.6. In addition, the solubility in the data set “physchem [8]” was 11 µM (≈ 3.03 µg/mL).
`Cc1[nH]nc2[nH]c(=O)cc([C@H]3CC[C@H](NS(=O)(=O)C4CC4)CC3)c12`: the half-maximal inhibitory concentration (IC50) in data set [1] amounted to 400 nM; in data set [2], 6600 nM; in data set [3] it was 2500 nM.
For the molecule `Cc1[nH]nc2[nH]c(=O)cc([C@H]3CC[C@H](CC#N)CC3)c12`, the IC50 in data set [1] is 40 nM; in data set [2], 270 nM; in data set [3], 360 nM; in data set [4] it was 130 nM; in data set [5], 1200 nM; in data set [6] it was over 40000 nM. In “physchem [7]”, this molecule registered a log distribution coefficient (logD) of 1.5. Moreover, the concentration in solution in the data set “physchem [8]” (solubility) came to 59 µM (≈ 15.9 µg/mL).
For the molecule `O=c1cc(C2CCCCC2)c2c[nH]nc2[nH]1`, the IC50 in data set [1] was 15000 nM; in data set [2], 12000 nM; in data set [3], 35000 nM; in data set [4], 24000 nM; in data set [5] it was over 50000 nM.
As for `O=c1cc(C2CCCCC2)c2c(C3CC3)[nH]nc2[nH]1`, the IC50 in data set [1] was 500 nM; in data set [2] it was 980 nM; in data set [3], 1300 nM; in data set [4] it was 1600 nM; in data set [5], 1800 nM; in data set [6], over 40000 nM. The molecule further showed a logD in the data set “physchem [7]” of 3.1.
In the case of `O=c1cc(C(F)F)c2c[nH]nc2[nH]1`, the IC50 in data set [1] was over 100000 nM.
As to `Cc1[nH]nc2[nH]c(=O)cc([C@H]3CC[C@H](N)CC3)c12`, the IC50 was 820 nM in data set [1]; 11000 nM in data set [2]; 18000 nM in data set [3]; 16000 nM in data set [4]; over 40000 nM in data set [5]; over 40000 nM in data set [6].
The molecule `CCCS(=O)(=O)N[C@H]1C[C@@H](N(C)c2ncnc3[nH]ccc23)C1` [ABROCITINIB] came in with a logD in “physchem [7]” of 2.
Regarding `Cc1[nH]nc2[nH]c(=O)cc([C@H]3CC[C@H](C#N)CC3)c12`, the IC50 came to 730 nM in data set [1] and 11000 nM in data set [2].
With `Cc1[nH]nc2[nH]c(=O)cc([C@H]3CC[C@H](O)CC3)c12`, the IC50 in data set [1] was found to be 490 nM; in data set [2], 1700 nM; in data set [4] it was 4200 nM; in data set [5] it was 20000 nM. In the data set “physchem [7]”, this molecule returned a logD of 0.8. The solubility in “physchem [8]” was over 85 µM.
`Cc1[nH]nc2[nH]c(=O)c(C#N)c(C3CCCCC3)c12`: the IC50 was 2100 nM in data set [1]; 5400 nM in data set [2]; 17000 nM in data set [3]; 11000 nM in data set [4]; 20000 nM in data set [5]; over 40000 nM in data set [6].
On to `Cc1[nH]nc2[nH]c(=O)cc([C@H]3CC[C@H](C(=O)NC4CC4)CC3)c12`, for which the IC50 was 2000 nM in data set [1]; 1100 nM in data set [2]; 9400 nM in data set [3]; 14000 nM in data set [4]; over 40000 nM in data set [5]; over 40000 nM in data set [6].
For `Cc1cc(=O)[nH]c2n[nH]c(C)c12`, the half-inhibitory concentration (IC50) in data set [1] is 30000 nM.
The molecule `Cc1cc(O)nc2c1c(C)nn2C` registered a half-maximal inhibitory concentration (IC50) in data set [1] of over 900000 nM.
